The values that follow come from PubChem BioAssay (NCI).

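Compound exposure: 48 hours, 5 concentrations, 96-well plates. TGI is the concentration that stops growth completely.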

Some test systems named below: NCI-H23 lung; CCRF-CEM leukemia; SF-295 CNS; IGROV1 ovarian; RPMI-8226 leukemia; SF-539 CNS; KM12 colon; MDA-MB-231 breast; K-562 leukemia; DU-145 prostate; TK-10 renal; SF-268 CNS; SNB-19 CNS; HCT-15 colon; PC-3 prostate; HCT-116 colon; RXF 393 renal; SK-OV-3 ovarian.
Common to all, as to assay: growth of human tumour cells (NCI), 48 h

Turning to `c1ccc2c(Cc3[nH]c4ccccc4c3Cc3c[nH]c4ccccc34)c[nH]c2c1`, the TGI was determined as 7.49 µM with NCI-H23 lung; 8.98 µM with CCRF-CEM leukemia; 16.3 µM in the assay with SF-295 CNS; 13.7 µM in the assay with IGROV1 ovarian; 12.2 µM in the assay on RPMI-8226 leukemia; 7.03 µM in the assay with SF-539 CNS. In addition, the TGI with KM12 colon was 4.84 µM; with MDA-MB-231 breast, 5.29 µM; in the assay with K-562 leukemia it was 10.5 µM; with DU-145 prostate, 4.48 µM; in the assay on TK-10 renal it was 8.1 µM; in the assay with SF-268 CNS, 4.86 µM. For the same compound, the TGI with SNB-19 CNS amounted to 25.3 µM; in the assay with HCT-15 colon, 10.5 µM; with PC-3 prostate, 8.37 µM; with HCT-116 colon, 3.47 µM; with RXF 393 renal, 5.8 µM; with SK-OV-3 ovarian it was 15.4 µM.
On to `COc1ccc(N=Nc2c(C)c(C#N)c(=S)n(C3OC(CO)C(O)C(O)C3O)c2-c2ccccc2)cc1` (centres undefined), for which the TGI is 98 µM in the assay on NCI-H23 lung; above 100 µM in the assay with CCRF-CEM leukemia; 98.5 µM in the assay with SF-295 CNS; above 100 µM with IGROV1 ovarian; above 100 µM with RPMI-8226 leukemia; above 100 µM in the assay with SF-539 CNS. For the same compound, the TGI in the assay with KM12 colon was above 100 µM; in the assay with MDA-MB-231 breast, above 100 µM; in the assay on K-562 leukemia, above 100 µM; with DU-145 prostate, above 100 µM; in the assay with TK-10 renal it was 94.8 µM; in the assay with SF-268 CNS it was above 100 µM. The TGI in the assay with SNB-19 CNS is above 100 µM; with HCT-15 colon, above 100 µM; in the assay on PC-3 prostate it was 66.3 µM; in the assay with HCT-116 colon it was 94 µM; in the assay with RXF 393 renal, 65.9 µM; in the assay on SK-OV-3 ovarian it was 83.3 µM.
Consider `CC(C)C1C(=O)N(c2c(F)c(F)c(F)c(F)c2F)C(=S)N1CCS(=O)c1ccccc1` (centres undefined), for which the TGI came to 33.3 µM with NCI-H23 lung; 42.3 µM with CCRF-CEM leukemia; 33.1 µM with SF-295 CNS; 34.4 µM in the assay with IGROV1 ovarian; 53.8 µM in the assay on RPMI-8226 leukemia; 36.2 µM in the assay on SF-539 CNS. The TGI with KM12 colon is 32.6 µM; with MDA-MB-231 breast, 32 µM; in the assay with K-562 leukemia, 39.6 µM; in the assay on DU-145 prostate, 47.6 µM; with TK-10 renal, 52 µM; in the assay on SF-268 CNS it was 32.6 µM. In addition, the TGI was 34.6 µM in the assay with SNB-19 CNS; 31.8 µM in the assay on HCT-15 colon; 29.3 µM in the assay on PC-3 prostate; 34.7 µM in the assay on HCT-116 colon; 35.4 µM with RXF 393 renal; 34.9 µM in the assay with SK-OV-3 ovarian.
Consider `CNNC1=NS(=O)(=O)c2cc(C#N)c(Cl)cc2S1`, for which the TGI in the assay with NCI-H23 lung, in the assay with CCRF-CEM leukemia, with SF-295 CNS, in the assay with IGROV1 ovarian, with RPMI-8226 leukemia and with SF-539 CNS was above 10 µM throughout. Besides, the TGI in the assay on KM12 colon, with MDA-MB-231 breast, in the assay with K-562 leukemia, in the assay on DU-145 prostate, in the assay with TK-10 renal and in the assay with SF-268 CNS was above 10 µM throughout. Also, the TGI with SNB-19 CNS, in the assay on HCT-15 colon, in the assay with PC-3 prostate, in the assay with HCT-116 colon, with RXF 393 renal and with SK-OV-3 ovarian was above 10 µM throughout.
For the compound `CC(Nc1ncc2c(n1)-c1ccccc1OC2)C(=O)O` (centres undefined), the TGI in the assay with NCI-H23 lung, in the assay with CCRF-CEM leukemia, in the assay on SF-295 CNS, with IGROV1 ovarian, in the assay with RPMI-8226 leukemia and in the assay with SF-539 CNS was above 100 µM throughout. For the same compound, the TGI in the assay with KM12 colon, with MDA-MB-231 breast, with K-562 leukemia, with DU-145 prostate, in the assay with TK-10 renal and in the assay with SF-268 CNS was above 100 µM throughout. Besides, the TGI in the assay with SNB-19 CNS, in the assay on HCT-15 colon, in the assay on PC-3 prostate, with HCT-116 colon, in the assay with RXF 393 renal and with SK-OV-3 ovarian was above 100 µM each time.
Regarding `CCc1n[nH]c(=O)n1/N=C/c1ccccc1O`, the TGI in the assay with NCI-H23 lung, in the assay with CCRF-CEM leukemia, with SF-295 CNS, with IGROV1 ovarian, in the assay on RPMI-8226 leukemia and in the assay with SF-539 CNS was above 100 µM each time. Further, the TGI with KM12 colon, in the assay on MDA-MB-231 breast, with K-562 leukemia, in the assay on DU-145 prostate, in the assay on TK-10 renal and with SF-268 CNS was above 100 µM each time. Besides, the TGI in the assay with SNB-19 CNS, in the assay with HCT-15 colon, in the assay on PC-3 prostate, with HCT-116 colon, in the assay on RXF 393 renal and in the assay with SK-OV-3 ovarian was above 100 µM each time.
Turning to `C=CCn1c(-c2ccc([N+](=O)[O-])cc2)cs/c1=N\C(P(=O)(O)O)P(=O)(O)O`, the TGI with NCI-H23 lung, in the assay with CCRF-CEM leukemia, with SF-295 CNS, in the assay with IGROV1 ovarian, in the assay on RPMI-8226 leukemia and with SF-539 CNS was above 100 µM in each case. Further, the TGI with KM12 colon, in the assay on MDA-MB-231 breast, with K-562 leukemia, in the assay with DU-145 prostate, with TK-10 renal and with SF-268 CNS was above 100 µM each time. The TGI with SNB-19 CNS, with HCT-15 colon, with PC-3 prostate, in the assay on HCT-116 colon, with RXF 393 renal and in the assay with SK-OV-3 ovarian was above 100 µM in each case.
As to `CC(=O)Nc1c(S(=O)(=O)c2ccccc2)c(C)c(C)n1CCN(C)C`, the TGI in the assay on NCI-H23 lung, in the assay on CCRF-CEM leukemia, in the assay on SF-295 CNS, with IGROV1 ovarian, in the assay with RPMI-8226 leukemia and in the assay on SF-539 CNS was above 100 µM throughout. Moreover, the TGI in the assay on KM12 colon, in the assay on MDA-MB-231 breast, with K-562 leukemia, in the assay on DU-145 prostate, with TK-10 renal and in the assay with SF-268 CNS was above 100 µM throughout. Moreover, the TGI in the assay with SNB-19 CNS, with HCT-15 colon, in the assay with PC-3 prostate, in the assay on HCT-116 colon, in the assay on RXF 393 renal and with SK-OV-3 ovarian was above 100 µM each time.
